Read-outs that look alike come from different tables or passages of the source.
Key:
[1] = molecular target: T1, T7 DNA polymerase (28 amino acid deletion in the exonuclease domain, complexed with thioredoxin), tyrosine at residue 526 (WT) (Escherichia phage T7, UniProt P00581, DEL118-145); experiment: Gel electrophoresis-based rate of incorporation of dideoxynucleotides relative to deoxynucleotides, 1:1 ratio of dNTPs to ddNTPs (Example 6); assay type: biochemical, bacteriophage T7; details: for D, discrimination factor (ratio of the use of a specific dNTP to the use of the comparable ddNTP at equal concentrations): 100 µM 4dNTPs and 100 µM of one ddNTP, 5 mM MgCl2, 37 °C; for Incorporation Rate Ratios (dN/ddN): stated to be the absolute ratios obtained in Example 6 (1:1 dNTPs to ddNTPs)
T1 construct: made in house; host or cells: strain that produces E. coli thioredoxin, lac promoter
From the text: (§1) The primary application of this test is to determine the absolute ratio of incorporation of a ddNMP to a dNMP for a DNA polymerase that efficiently incorporates dideoxynucleotides, such as T7 DNA polymerase, E. coli DNA polymerase I mutant F762Y or Taq DNA polymerase mutant F667Y. It can also indicate the level of discrimination against ddNTPs of any DNA polymerase; however, for DNA polymerases that discriminate strongly against ddNTPs, such as T7 DNA polymerase mutant Y526F, E. coli DNA polymerase I or Taq DNA polymerase, higher ratios of ddNTP to dNTP are necessary to determine precisely their level of discrimination, which is described in detail in Example 7.
(§2) DNA synthesis reactions are carried out on the ^32P-end labeled 40 mer-M 13 mGP1-2 DNA template complex prepared as described in Example 3. Reaction conditions are used that are optimum for the DNA polymerase being tested with regard to buffer, pH, salts, and temperature of the reaction. A concentration of DNA polymerase is chosen whereby most of the primers are extended in a 10 min reaction and are terminated by the incorporation of a dideoxynucleotide. The reaction mixture contains 100 µM 4dNTPs and 100 µM of one of the four ddNTPs.
(§3) We used this test to compare the ability of six DNA polymerases to incorporate each of the four ddNMPs. The DNA polymerases tested were (1) T7 DNA polymerase with a 28 amino acid deletion in the exonuclease domain and complexed in a one-to-one ratio with thioredoxin (Tabor and Richardson 264 J. Biol. Chem. 6447, 1989) (referred to here as "T7 DNA polymerase"), (2) The large fragment of E. coli DNA polymerase I, commonly called the Klenow fragment (referred to here as "E. coli DNA polymerase I"), (3) Unmodified DNA polymerase from Thermus aquaticus (referred to here as "Taq DNA polymerase"), (4) T7 DNA polymerase as described above in which the tyrosine at residue 526 has been changed to a phenylalanine (referred to here as "T7 DNA polymerase Y526F"), (5) E. coli DNA polymerase I as described above in which the phenylalanine at residue 762 has been changed to a tyrosine (referred to here as "E. coli DNA polymerase I F762Y"), and (6) Taq DNA polymerase as described above in which the phenylalanine at residue 667 has been changed to a tyrosine (referred to here as "Taq DNA polymerase F667Y").
(§4) The reaction mixtures also contained 10 ng of yeast inorganic pyrophosphatase to inhibit pyrophosphorolysis that could otherwise increase the apparent discrimination by the DNA polymerase (Tabor and Richardson 265 j. Biol. Chem. 8322, 1990). The reactions were initiated by the addition of 2 µl of each DNA polymerase, diluted in 20 mM TrisHCl, pH 7.5, 10 mM 2-mercaptoethanol and 0.05% bovine serum albumin to a concentration of approximately 0.025 units/µl. The concentration of each DNA polymerase was sufficient to extend most of the labeled primers by more than 500 nucleotides in the absence of ddNTPs in a 15 min reaction. The reaction mixtures were incubated for 15 min at either 37 °C (T7 DNA polymerase, T7 DNA polymerase Y526F, E. coli DNA polymerase I, and E. coli DNA polymerase F762Y) or 70 °C (Taq DNA polymerase and Taq DNA polymerase F667Y). The reactions were terminated by the addition of 10 µl 90% formamide, 20 mM EDTA, 0.05% bromphenol blue. Each sample was heated at 90°C for 2 min immediately prior to loading 6 µl of each sample onto a gel consisting of 8% polyacrylamide, 0.4% N,N'-methylenebisacrylamide, 7 M urea in 100 mM Trisborate, pH 8.3, 1 mM EDTA. Electrophoresis was at 2000 Volts for 90 min (until the bromphenol blue had just run off the bottom of the gel). After electrophoresis, the gel was dried under vacuum, and autoradiographed. After autoradiography, the distribution of radioactively labeled fragments was determined by Phosphorimager analysis (Molecular Dynamics). […]

[2] = molecular target: T2, E. coli DNA polymerase I (Klenow fragment) F762Y (Escherichia coli, UniProt P00582, F762Y); experiment: as above; assay type: biochemical; details: for D, discrimination factor (ratio of the use of a specific dNTP to the use of the comparable ddNTP at equal concentrations): 100 µM 4dNTPs and 100 µM of one ddNTP, 5 mM MgCl2, 37 °C; for Incorporation Rate Ratios (dN/ddN): absolute ratios obtained in Example 6 (1:1 dNTPs to ddNTPs)
T2 construct: The large fragment of E. coli DNA polymerase I, commonly called the Klenow fragment; made in house; T7 RNA polymerase promoter; purified by ion exchange chromatography
From the text: as §1, §2, §3, §4

Taq DNA polymerase F667Y = molecular target: T3, Taq DNA polymerase F667Y (Thermus aquaticus, UniProt P19821, F667Y); experiment: as above; assay type: biochemical; details: for D, discrimination factor (ratio of the use of a specific dNTP to the use of the comparable ddNTP at equal concentrations): 100 µM 4dNTPs and 100 µM of one ddNTP, 5 mM MgCl2, 70 °C; for Incorporation Rate Ratios (dN/ddN): absolute ratios obtained in Example 6 (1:1 dNTPs to ddNTPs)
T3 construct: to the gene that produces the full length Taq DNA polymerase; made in house
From the text: as §1, §2, §3, §4

[3] = molecular target: T4, HIV reverse transcriptase, change of Glu 89 to Glycine (Human immunodeficiency virus type 1 group M subtype B, UniProt P04585, E676G); details: relative to the unmutated enzyme; cited from earlier work
T4 construct: glu-89 of human immunodeficiency virus type 1 reverse transcriptase

[4] = molecular target: T5, E. coli DNA polymerase I (Klenow fragment) (Escherichia coli, UniProt P00582); details: cited from earlier work
T5 construct: manganese reduces the discrimination of Klenow fragment against ddATP from 550 to 3.9 fold
T5 sequence (P00582 324-928): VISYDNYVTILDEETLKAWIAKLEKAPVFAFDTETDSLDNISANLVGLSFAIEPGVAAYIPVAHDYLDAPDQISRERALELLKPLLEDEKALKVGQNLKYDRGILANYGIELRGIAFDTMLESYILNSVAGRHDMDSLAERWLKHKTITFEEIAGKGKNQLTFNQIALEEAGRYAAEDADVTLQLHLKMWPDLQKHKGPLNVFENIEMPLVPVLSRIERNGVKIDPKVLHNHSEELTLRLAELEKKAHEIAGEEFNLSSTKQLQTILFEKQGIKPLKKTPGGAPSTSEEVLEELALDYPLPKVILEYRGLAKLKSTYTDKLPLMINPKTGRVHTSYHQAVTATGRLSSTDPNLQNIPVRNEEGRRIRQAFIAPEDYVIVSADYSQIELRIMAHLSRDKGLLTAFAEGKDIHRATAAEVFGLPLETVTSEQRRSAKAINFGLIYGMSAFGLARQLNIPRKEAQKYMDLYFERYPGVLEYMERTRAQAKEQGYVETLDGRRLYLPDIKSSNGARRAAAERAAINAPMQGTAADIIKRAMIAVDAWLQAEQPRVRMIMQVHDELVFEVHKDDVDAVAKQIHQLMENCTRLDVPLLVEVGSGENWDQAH

T3 sequence (P19821 whole entry F667Y): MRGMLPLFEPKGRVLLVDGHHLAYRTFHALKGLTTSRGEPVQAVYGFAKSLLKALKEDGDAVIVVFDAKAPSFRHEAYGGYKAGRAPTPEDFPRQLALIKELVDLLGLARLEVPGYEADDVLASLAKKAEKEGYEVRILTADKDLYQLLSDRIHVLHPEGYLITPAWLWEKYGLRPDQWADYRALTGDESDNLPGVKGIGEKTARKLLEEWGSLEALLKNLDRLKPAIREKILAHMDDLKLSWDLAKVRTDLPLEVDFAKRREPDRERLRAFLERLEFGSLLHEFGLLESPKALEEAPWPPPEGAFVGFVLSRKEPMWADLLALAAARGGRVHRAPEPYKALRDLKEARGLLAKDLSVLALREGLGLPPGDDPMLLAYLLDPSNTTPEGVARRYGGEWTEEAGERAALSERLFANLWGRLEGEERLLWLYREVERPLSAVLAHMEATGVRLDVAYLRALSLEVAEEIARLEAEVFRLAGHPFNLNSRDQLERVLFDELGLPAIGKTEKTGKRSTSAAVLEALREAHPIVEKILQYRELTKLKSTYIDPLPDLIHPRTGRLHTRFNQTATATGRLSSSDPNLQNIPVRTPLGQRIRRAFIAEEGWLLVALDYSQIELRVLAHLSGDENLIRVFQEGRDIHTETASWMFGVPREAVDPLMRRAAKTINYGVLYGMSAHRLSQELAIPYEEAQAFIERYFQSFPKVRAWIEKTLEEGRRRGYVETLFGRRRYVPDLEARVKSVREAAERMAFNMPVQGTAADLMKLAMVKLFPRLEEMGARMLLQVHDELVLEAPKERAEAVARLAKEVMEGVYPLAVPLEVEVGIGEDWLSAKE
T1 sequence (P00581 other isoform, or with tags, fused parts or gaps DEL118-145): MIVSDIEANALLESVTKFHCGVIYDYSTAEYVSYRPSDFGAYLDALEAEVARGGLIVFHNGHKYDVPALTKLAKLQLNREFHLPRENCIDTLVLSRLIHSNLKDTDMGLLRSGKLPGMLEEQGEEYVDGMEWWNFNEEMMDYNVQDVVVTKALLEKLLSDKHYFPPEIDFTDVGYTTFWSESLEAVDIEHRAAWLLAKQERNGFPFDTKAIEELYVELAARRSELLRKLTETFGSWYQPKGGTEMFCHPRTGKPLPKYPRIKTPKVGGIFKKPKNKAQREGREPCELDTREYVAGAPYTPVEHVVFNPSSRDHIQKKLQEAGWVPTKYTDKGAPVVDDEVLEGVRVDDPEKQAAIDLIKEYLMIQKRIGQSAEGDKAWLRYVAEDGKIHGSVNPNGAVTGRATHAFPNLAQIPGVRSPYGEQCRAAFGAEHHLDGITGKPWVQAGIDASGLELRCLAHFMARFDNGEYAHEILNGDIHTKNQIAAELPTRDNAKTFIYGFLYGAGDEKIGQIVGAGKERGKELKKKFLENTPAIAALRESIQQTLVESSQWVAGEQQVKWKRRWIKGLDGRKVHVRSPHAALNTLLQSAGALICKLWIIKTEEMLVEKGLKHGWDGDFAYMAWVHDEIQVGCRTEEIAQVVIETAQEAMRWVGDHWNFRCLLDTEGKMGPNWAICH
T1 sequence (P0AA25 2-109, stated change not applied, further chain): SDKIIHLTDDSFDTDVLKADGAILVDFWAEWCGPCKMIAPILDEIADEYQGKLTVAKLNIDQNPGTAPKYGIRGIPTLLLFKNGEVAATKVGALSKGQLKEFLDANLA
T2 sequence (P00582 324-928 F762Y): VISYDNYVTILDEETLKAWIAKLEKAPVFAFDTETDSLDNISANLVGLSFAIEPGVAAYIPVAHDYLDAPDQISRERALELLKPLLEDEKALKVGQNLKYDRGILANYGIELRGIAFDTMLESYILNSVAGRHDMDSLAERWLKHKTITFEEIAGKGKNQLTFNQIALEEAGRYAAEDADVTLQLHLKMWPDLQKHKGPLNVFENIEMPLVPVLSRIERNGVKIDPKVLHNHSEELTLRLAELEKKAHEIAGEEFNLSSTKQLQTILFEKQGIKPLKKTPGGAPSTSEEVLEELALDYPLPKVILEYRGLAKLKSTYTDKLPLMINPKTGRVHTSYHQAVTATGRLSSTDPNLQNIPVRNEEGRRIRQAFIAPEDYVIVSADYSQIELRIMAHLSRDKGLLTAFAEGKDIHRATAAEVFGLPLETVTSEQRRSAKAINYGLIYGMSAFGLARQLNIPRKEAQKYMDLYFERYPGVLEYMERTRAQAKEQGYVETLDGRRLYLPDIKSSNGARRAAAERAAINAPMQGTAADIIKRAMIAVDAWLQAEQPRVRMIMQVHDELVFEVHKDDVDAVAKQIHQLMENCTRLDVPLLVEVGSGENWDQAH

With `Nc1nc2c(ncn2[C@H]2CC[C@@H](COP(=O)(O)OP(=O)(O)OP(=O)(O)O)O2)c(=O)[nH]1` [ddGTP] the “D, discrimination factor (ratio of the use of a specific dNTP to the use of the comparable ddNTP at equal concentrations)” value [1] was 2.2, the “Incorporation Rate Ratios (dN/ddN)” value [1] was 3.2 and the “D, discrimination factor (ratio of the use of a specific dNTP to the use of the comparable ddNTP at equal concentrations)” value [2] was 0.56. The “Incorporation Rate Ratios (dN/ddN)” value [2] was 0.56, the “D, discrimination factor (ratio of the use of a specific dNTP to the use of the comparable ddNTP at equal concentrations)” value (Taq DNA polymerase F667Y) was 0.45 and the “Incorporation Rate Ratios (dN/ddN)” value (Taq DNA polymerase F667Y) was 0.45. The “ddGTP required to obtain same extent of inhibition” value [3] was “about 10 times more”.

In the case of `Cc1cn([C@H]2CC[C@@H](COP(=O)(O)OP(=O)(O)OP(=O)(O)O)O2)c(=O)[nH]c1=O` [ddTTP], the “D, discrimination factor (ratio of the use of a specific dNTP to the use of the comparable ddNTP at equal concentrations)” value [1] is reported as 1.8, the “Incorporation Rate Ratios (dN/ddN)” value [1] is reported as 2.8 and the “D, discrimination factor (ratio of the use of a specific dNTP to the use of the comparable ddNTP at equal concentrations)” value [2] is reported as 0.54. For the same molecule, the “Incorporation Rate Ratios (dN/ddN)” value [2] was 0.54, the “D, discrimination factor (ratio of the use of a specific dNTP to the use of the comparable ddNTP at equal concentrations)” value (Taq DNA polymerase F667Y) was 0.56 and the “Incorporation Rate Ratios (dN/ddN)” value (Taq DNA polymerase F667Y) was 0.56.

In the case of `Nc1ccn([C@H]2CC[C@@H](COP(=O)(O)OP(=O)(O)OP(=O)(O)O)O2)c(=O)n1` [ddCTP], the “D, discrimination factor (ratio of the use of a specific dNTP to the use of the comparable ddNTP at equal concentrations)” value [1] is reported as 2.7, the “Incorporation Rate Ratios (dN/ddN)” value [1] is reported as 3.7 and the “D, discrimination factor (ratio of the use of a specific dNTP to the use of the comparable ddNTP at equal concentrations)” value [2] is reported as 0.75. The “Incorporation Rate Ratios (dN/ddN)” value [2] was 0.75, the “D, discrimination factor (ratio of the use of a specific dNTP to the use of the comparable ddNTP at equal concentrations)” value (Taq DNA polymerase F667Y) was 0.32 and the “Incorporation Rate Ratios (dN/ddN)” value (Taq DNA polymerase F667Y) was 0.32.

With `Nc1ncnc2c1ncn2[C@H]1CC[C@@H](COP(=O)(O)OP(=O)(O)OP(=O)(O)O)O1` [ddATP] the “D, discrimination factor (ratio of the use of a specific dNTP to the use of the comparable ddNTP at equal concentrations)” value [1] was 2.3, the “Incorporation Rate Ratios (dN/ddN)” value [1] was 3.3 and the “D, discrimination factor (ratio of the use of a specific dNTP to the use of the comparable ddNTP at equal concentrations)” value [2] was 0.72. The “Incorporation Rate Ratios (dN/ddN)” value [2] was 0.72, the “D, discrimination factor (ratio of the use of a specific dNTP to the use of the comparable ddNTP at equal concentrations)” value (Taq DNA polymerase F667Y) was 0.59 and the “Incorporation Rate Ratios (dN/ddN)” value (Taq DNA polymerase F667Y) was 0.59. The “discrimination against ddATP” value ([4]; in the presence of manganese) was 3.9 fold and the “discrimination against ddATP” value ([4]; magnesium) was 550 fold.
